{"source": "ChEMBL document CHEMBL4834416", "about": "“The Discovery of Novel ACA Derivatives as Specific TRPM2 Inhibitors that Reduce Ischemic Injury Both In Vitro and In Vivo” (J Med Chem, 2021)", "key": {"[1]": {"system": "Mus musculus", "assay": "Neuroprotective activity in mouse model of transient middle cerebral artery occlusion-induced cerebral ischemia-reperfusion injury assessed as reduction neurological score at 1 mg/kg, iv treated for 3 hrs after onset of reperfusion by TTC staining based assay relative to control", "format": "functional, organism-based"}, "[2]": {"assay": "AUC (0 to infinitive) in C57BL/6 mouse plasma at 10 mg/kg, IG by LC-MS/MS analysis", "format": "ADME, organism-based", "design": "route […], time infinity, dose 10 mg/kg", "conditions": "po"}, "[3]": {"assay": "Cmax in C57BL/6 mouse plasma at 10 mg/kg, IG by LC-MS/MS analysis", "format": "ADME, organism-based", "design": "route […], dose 10 mg/kg", "conditions": "po"}, "[4]": {"assay": "AUC (0 to t) in C57BL/6 mouse plasma at 0.3 mg/kg, iv by LC-MS/MS analysis", "format": "ADME, organism-based", "design": "dose 0.3 mg/kg"}, "[5]": {"assay": "MRT in C57BL/6 mouse plasma at 0.3 mg/kg, iv by LC-MS/MS analysis", "format": "ADME, organism-based"}, "[6]": {"assay": "AUC (0 to t) in C57BL/6 mouse plasma at 1 mg/kg, iv by LC-MS/MS analysis", "format": "ADME, organism-based", "design": "dose 1 mg/kg"}, "[7]": {"assay": "Toxicity in C57BL/6 mouse assessed as adverse effect at 100 mg/kg, IG", "format": "organism-based", "conditions": "in vivo, po"}, "[8]": {"assay": "Oral bioavailability in C57BL/6 mouse plasma at 0.3 mg/kg, IG by LC-MS/MS analysis", "format": "ADME, organism-based"}, "[9]": {"assay": "AUC (0 to infinitive) in C57BL/6 mouse plasma at 3 mg/kg, iv by LC-MS/MS analysis", "format": "ADME, organism-based", "design": "time infinity, route intravenous, dose 3 mg/kg"}, "[10]": {"assay": "AUC (0 to infinitive) in C57BL/6 mouse plasma at 100 mg/kg, IG by LC-MS/MS analysis", "format": "ADME, organism-based", "design": "route […], time infinity, dose 100 mg/kg", "conditions": "po"}, "[11]": {"system": "Mus musculus", "assay": "Neuroprotective activity in mouse model of transient middle cerebral artery occlusion-induced cerebral ischemia-reperfusion injury assessed as reduction in infarct volume at 3 mg/kg, iv treated for 3 hrs after onset of reperfusion by TTC staining based assay (reference value: 57.6 +/- 4.9%)", "format": "functional", "design": "scale not given: the % may be the effect or the level left"}}, "note": "Activity calls are given as the source filed them. No cut-off for these calls is given here.", "data": [{"smiles": "O=C(/C=C/c1ccc(-c2cccc(C(F)(F)F)c2)cc1)Nc1ccccc1C(=O)O", "values": [{"measurement": "Activity", "setting": "[1]", "result": "inactive"}, {"measurement": "AUC(0-inf)", "setting": "[2]", "result": 160, "unit": "µg·h/mL"}, {"measurement": "Cmax", "setting": "[3]", "result": 58.4, "unit": "µg/mL"}, {"measurement": "AUC(0-t)", "setting": "[4]", "result": 5.2, "unit": "µg·h/mL"}, {"measurement": "MRT", "setting": "[5]", "result": 1.19, "unit": "h"}, {"measurement": "AUC(0-t)", "setting": "[6]", "result": 18.5, "unit": "µg·h/mL"}, {"measurement": "Activity", "setting": "[7]", "result": "Non-Toxic"}, {"measurement": "bioavailability", "setting": "[8]", "result": 90.4, "unit": "%"}, {"measurement": "AUC(0-inf)", "setting": "[9]", "result": 40.9, "unit": "µg·h/mL"}, {"measurement": "AUC(0-inf)", "setting": "[10]", "result": 1870, "unit": "µg·h/mL"}, {"measurement": "Activity", "setting": "[11]", "result": 38.9, "unit": "%"}]}]}
